# In patent US6723753B2, “Substituted n-benzyl-n-phenyl aminoalcohol compounds useful for inhibiting cholesteryl ester transfer protein activity” (Pharmacia Corporation, priority 2002, dated 2004):
# pIC50: −log10 of the molar value.
# Biological target: T1, CETP (Homo sapiens, UniProt P11597)
# T1 sequence (P11597 18-493): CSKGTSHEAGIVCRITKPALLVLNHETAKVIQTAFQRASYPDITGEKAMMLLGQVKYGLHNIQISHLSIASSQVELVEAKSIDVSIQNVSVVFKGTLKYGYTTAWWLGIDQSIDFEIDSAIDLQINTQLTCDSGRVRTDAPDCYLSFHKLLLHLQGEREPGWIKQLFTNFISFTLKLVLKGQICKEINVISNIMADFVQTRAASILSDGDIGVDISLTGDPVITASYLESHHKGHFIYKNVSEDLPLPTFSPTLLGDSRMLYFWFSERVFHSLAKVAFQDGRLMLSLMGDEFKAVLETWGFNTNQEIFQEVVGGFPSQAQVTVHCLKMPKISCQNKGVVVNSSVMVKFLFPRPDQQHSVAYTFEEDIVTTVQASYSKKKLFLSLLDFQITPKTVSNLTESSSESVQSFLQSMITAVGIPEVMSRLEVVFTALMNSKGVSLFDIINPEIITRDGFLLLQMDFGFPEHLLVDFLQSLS
# Experiment: Assay of CETP Inhibition using Purified Components (Reconstituted Buffer Assay)
# Type: biochemical
# Set-up: made in house; host or cells: CHO cells (serum-free conditioned medium)
# Conditions: IC50, Inhibition of CETP activity in reconstituted buffer assay; transfer of [3H]CE from HDL to LDL
# In short: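 Purified human recombinant CETP from transfected CHO cells was incubated with [^3H]CE-labeled HDL donor and LDL acceptor in Tris pH 7.4/NaCl/EDTA/1% BSA buffer for 2 h at 37 °C. LDL was then precipitated with dextran sulfate/MgCl2, filtered, and counted by liquid scintillation to give IC50 for CE transfer.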
row,Compound,pIC50
1,OC(CN(Cc1ccc(-c2ccccc2)cc1)c1cccc(F)c1)C(F)(F)F (stereo not drawn) [Example 65],4.70

# Same assay, conditions: Inhibition of CETP activity in reconstituted buffer assay; transfer of [3H]CE from HDL to LDL; read-out: IC50
row,Compound,pIC50
1,"Oc1cccc(N(Cc2cccc(OC(F)(F)C(F)F)c2)CC(O)C(F)(F)F)c1 (stereo not drawn) [Example 371, 3-[[[3-(1,1,2,2-tetrafluoroethoxy)phenyl]methyl](3,3,3-trifluoro-2-hydroxypropyl)amino]phenol]",5.41
2,OC(CN(Cc1nccn1Cc1ccccc1)c1cccc(OC(F)(F)F)c1)C(F)(F)F (stereo not drawn) [Example 365],< 4.00
3,OC(CN(Cc1cccc(OC(F)(F)C(F)F)c1)c1cccc(Oc2cc(F)ccn2)c1)C(F)(F)F (stereo not drawn) [Example 443],< 4.30
4,N#Cc1ccc(N(Cc2cccc(OC(F)(F)F)c2)CC(O)C(F)(F)F)cc1 (stereo not drawn) [Example 163],5.00
5,CC(=O)CCCCOc1cccc(N(Cc2cccc(OC(F)(F)C(F)F)c2)CC(O)C(F)(F)F)c1 (stereo not drawn) [Example 495],5.82
6,Cc1ccc(N(Cc2ccccc2)CC(O)C(F)(F)F)cc1 (stereo not drawn) [Example 14],4.22
7,Cc1cccc(N(Cc2cccc(OC(F)(F)F)c2)CC(O)C(F)(F)F)c1 (stereo not drawn) [Example 72],5.00
8,CCOC(=O)C(C#N)C(=O)c1ccc(Nc2cccc(N(Cc3cccc(OC(F)(F)C(F)F)c3)CC(O)C(F)(F)F)c2)cc1 (stereo not drawn) [Example 301],4.96
9,COc1ccccc1N(Cc1ccc(C)cc1)CC(O)C(F)(F)F (stereo not drawn) [Example 667],< 4.00
10,COc1ccc(Oc2cccc(CN(CC(O)C(F)(F)F)c3cccc(F)c3)c2)cc1 (stereo not drawn) [Example 675],< 4.00
11,Oc1ccc(O)c(CN(CC(O)C(F)(F)F)c2cccc(OC(F)(F)F)c2)c1 (stereo not drawn) [Example 358],< 4.00
12,O=C(O)c1cncc(Oc2cccc(N(Cc3cccc(OC(F)(F)C(F)F)c3)CC(O)C(F)(F)F)c2)c1 (stereo not drawn) [Example 442],5.96
13,COc1cc(Nc2cccc(N(Cc3cccc(OC(F)(F)C(F)F)c3)CC(O)C(F)(F)F)c2)cc(OC)c1OC (stereo not drawn) [Example 306],4.60
14,OC(CN(Cc1cccc2ccccc12)c1cccc(OC(F)(F)F)c1)C(F)(F)F (stereo not drawn) [Example 332],4.10
15,OC(CN(Cc1cccc(OC(F)(F)C(F)F)c1)c1cccc(OCc2cccnc2)c1)C(F)(F)F (stereo not drawn) [Example 428],5.17
16,COc1cccc(N(Cc2cccc(C(F)(F)F)c2)CC(O)C(F)(F)F)c1 (stereo not drawn) [Example 48],< 4.00
17,CC(c1ccc(C#N)cc1)N(CC(O)C(F)(F)F)c1cccc(Oc2ccccc2)c1 (stereo not drawn) [Example 202],< 4.00
18,O=C(c1ccccc1)c1cccc(N(Cc2cccc(OC(F)(F)C(F)F)c2)CC(O)C(F)(F)F)c1 (stereo not drawn) [Example 579],5.74
19,OC(CN(Cc1cccc(OC(F)(F)C(F)F)c1)c1cccc(Oc2ccc(F)c(F)c2F)c1)C(F)(F)F (stereo not drawn) [Example 237],6.46
20,OC(CN(Cc1cccc(C(F)(F)F)c1)c1ccc(-c2ccccc2)cc1)C(F)(F)F (stereo not drawn) [Example 689],5.30
21,Cc1cccc(S(=O)(=O)Nc2cccc(N(Cc3cccc(OC(F)(F)C(F)F)c3)CC(O)C(F)(F)F)c2)c1 (stereo not drawn) [Example 530],< 4.30
22,Cc1ccc(CN(CC(O)C(F)(F)F)c2cc(F)cc(F)c2)cc1 (stereo not drawn) [Example 29],< 4.00
23,OC(CN(Cc1ccc(F)cc1)Cc1cccc(C(F)(F)F)c1)C(F)(F)F (stereo not drawn) [compound 191],< 4.00
24,COC(=O)CCCCOc1cccc(N(Cc2cccc(OC(F)(F)C(F)F)c2)CC(O)C(F)(F)F)c1 (stereo not drawn) [Example 496],5.92
25,OC(CN(Cc1cccc(OC(F)(F)C(F)F)c1)c1cccc(OCc2ccc(SC(F)(F)F)cc2)c1)C(F)(F)F (stereo not drawn) [Example 409],6.21
26,Cc1ccc(CN(CC(O)C(F)(F)F)c2cccc(C)c2)cc1 (stereo not drawn) [Example 12],< 4.00
27,COc1c(F)c(F)c(CN(CC(O)C(F)(F)F)c2cccc(OC(F)(F)F)c2)c(F)c1F (stereo not drawn) [Example 326],< 4.00
28,COc1ccc(N(Cc2ccc(C(F)(F)F)cc2)CC(O)C(F)(F)F)cc1 (stereo not drawn) [Example 23],4.82
29,COc1cccc(COc2cccc(N(Cc3cccc(OC(F)(F)C(F)F)c3)CC(O)C(F)(F)F)c2)c1 (stereo not drawn) [Example 407],5.82
